According to publication PMC11785709, “Angelica gigas Nakai (Korean Dang-gui) Root Alcoholic Extracts in Health Promotion and Disease Therapy – active Phytochemicals and In Vivo Molecular Targets” (Pharmaceutical Research, 2025):
pEC50, pIC50, pKd: −log10 of the molar value. Where “and” joins values, the source holds several entries; their conditions need not be identical. Identical values can stand only once. Like-named read-outs stand apart in the source and are kept apart here.

Experiments:
[1] = cited from earlier work; for Cmax: 4.6 g AGN root powder per subject (0.055 mg D, 0.184 mg DA, 1.095 mg nodakenin); for t1/2 / tmax: 4.6 g AGN root powder per subject
AR; ERα = settings: cited from earlier work; for mode of action on AR and ERα: responsive cancer cell culture models
human MAO-A = system: human MAO-A; design: method as in PMID 28109809; settings: cited from earlier work; for pIC50: read-out: MAO-A inhibition IC50
BRSK2 = molecular target: T1, BRSK2 (Homo sapiens, UniProt Q8IWQ3); experiment: Reaction Biology kinase activity inhibition; assay type: biochemical; settings: for pIC50: validation titration, 6.25 to 100 µM, Hotspot confirmation
T1 construct: purchased Reaction Biology (Malvern, PA)
T1 sequence (Q8IWQ3 1-736): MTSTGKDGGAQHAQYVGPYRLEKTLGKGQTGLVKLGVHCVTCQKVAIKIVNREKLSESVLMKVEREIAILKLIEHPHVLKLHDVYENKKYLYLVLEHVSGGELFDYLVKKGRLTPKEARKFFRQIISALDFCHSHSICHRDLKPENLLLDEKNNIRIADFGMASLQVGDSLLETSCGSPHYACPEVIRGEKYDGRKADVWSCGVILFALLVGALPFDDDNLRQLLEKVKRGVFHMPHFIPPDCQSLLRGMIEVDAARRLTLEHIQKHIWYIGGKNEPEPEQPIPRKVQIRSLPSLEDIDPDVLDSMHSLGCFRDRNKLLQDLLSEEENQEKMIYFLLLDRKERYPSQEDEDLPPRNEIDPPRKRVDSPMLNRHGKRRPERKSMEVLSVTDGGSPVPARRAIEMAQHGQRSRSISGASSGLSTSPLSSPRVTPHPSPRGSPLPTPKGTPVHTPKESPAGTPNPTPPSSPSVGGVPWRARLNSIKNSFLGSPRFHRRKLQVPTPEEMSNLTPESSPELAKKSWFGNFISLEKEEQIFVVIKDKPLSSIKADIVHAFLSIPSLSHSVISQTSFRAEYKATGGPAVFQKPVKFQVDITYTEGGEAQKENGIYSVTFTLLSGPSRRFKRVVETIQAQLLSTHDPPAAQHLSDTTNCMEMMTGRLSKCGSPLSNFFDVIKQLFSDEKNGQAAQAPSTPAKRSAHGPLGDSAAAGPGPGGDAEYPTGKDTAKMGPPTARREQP
Description: (§1) The second screening was the Reaction Biology® (Malvern, PA) kinase activity inhibition tests, which screened for more than 600 protein kinases and lipid kinases, using miniaturized radioisotope-based assay platform with γ-^33P-ATP, followed by confirmation with IC50 kinase profiling service with 5 concentrations of test compound (i.e., DOH and DA) with curve fitting.

CAMKK1 = molecular target: T2, CAMKK1 (Homo sapiens, UniProt Q8N5S9); experiment: Reaction Biology kinase activity inhibition; assay type: biochemical; settings: for pIC50: validation titration, 6.25 to 100 µM, Hotspot confirmation
T2 construct: purchased Reaction Biology (Malvern, PA)
Description: as §1

DDR1 = molecular target: T3, DDR1 (Homo sapiens, UniProt Q08345); experiment: Reaction Biology kinase activity inhibition; assay type: biochemical; settings: for pIC50: validation titration, 6.25 to 100 µM, Hotspot confirmation
T3 construct: purchased Reaction Biology (Malvern, PA)
Description: as §1

PDK2/PDHK2 = molecular target: T4, PDK2/PDHK2 (Homo sapiens, UniProt Q15119); experiment: Reaction Biology kinase activity inhibition; assay type: biochemical; settings: for pIC50: validation titration, 6.25 to 100 µM, Hotspot confirmation
T4 construct: purchased Reaction Biology (Malvern, PA)
Description: as §1

ROCK2 [2] = molecular target: T5, ROCK2 (Homo sapiens, UniProt O75116); experiment: KINOMEscan competition binding; design: purchased Eurofins DiscoverX (KINOMEscan)
Method: (§2) Two distinct platforms were used for initial screening with 50 µM DOH vs. DMSO vehicle. The first was the Eurofins DiscoverX KINOMEscan® (Freemont, CA USA) profiling platform, which employed a proprietary active site-directed competition binding assay to quantitatively measure interactions between a test compound (i.e., DOH) and 468 human protein kinases and disease relevant mutant variants either directly (sterically) or indirectly (allosterically) to prevent a kinase binding to its immobilized substrate (ligand). The top 8 hits were subjected to secondary screening verification by DOH concentration-titration for dissociation constant (Kd). For ROCK1 and ROCK2, DA was chosen for Kd titration as well, because it is ~ 10 × higher than D in peripheral circulation due to its resistance to hydrolysis by carboxyesterase-2 (Fig. 1C).

MAO-B = system: MAO-B; design: method as in PMID 28109809; settings: screened at 10 μM; cited from earlier work
MKNK2 = molecular target: T6, MKNK2 (Homo sapiens, UniProt Q9HBH9); experiment: KINOMEscan competition binding; settings: for pKd: validation Kd titration, 0.003 to 50 µM, two values per cell
T6 construct: purchased Eurofins DiscoverX (KINOMEscan)
Method: as §2

DRAK2 (STK17B) = molecular target: T7, DRAK2 (STK17B) (Homo sapiens, UniProt O94768); experiment: KINOMEscan competition binding; settings: for pKd: validation Kd titration, 0.003 to 50 µM, two values per cell
T7 construct: purchased Eurofins DiscoverX (KINOMEscan)
T7 sequence (O94768 1-372): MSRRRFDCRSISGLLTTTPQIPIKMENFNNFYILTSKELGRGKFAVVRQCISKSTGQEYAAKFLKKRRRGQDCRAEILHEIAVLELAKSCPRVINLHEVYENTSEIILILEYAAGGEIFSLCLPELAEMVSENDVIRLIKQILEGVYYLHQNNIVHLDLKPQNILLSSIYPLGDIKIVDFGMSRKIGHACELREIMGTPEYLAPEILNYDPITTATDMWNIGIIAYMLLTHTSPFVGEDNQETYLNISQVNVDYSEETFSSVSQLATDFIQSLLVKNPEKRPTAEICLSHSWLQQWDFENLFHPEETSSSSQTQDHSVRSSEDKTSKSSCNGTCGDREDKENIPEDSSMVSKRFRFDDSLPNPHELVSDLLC
Method: as §2

ROCK1 = ROCK1 (Homo sapiens, UniProt Q13464); experiment: Reaction Biology kinase activity inhibition; assay type: biochemical; design: purchased Reaction Biology (Malvern, PA)
Description: as §1

ROCK2 [3] = molecular target: T5, ROCK2; experiment: Reaction Biology kinase activity inhibition; assay type: biochemical; design: purchased Reaction Biology (Malvern, PA)
Description: as §1

[4] = Eurofins DiscoveRx, Table 1, read-out: ROCK2 Kd
[5] = validation Kd titration, 0.003 to 50 µM, two values per cell, read-out: Kd
[6] = Reaction Biology, Inc, Table 1, read-out: ROCK1 IC50
[7] = validation titration, 6.25 to 100 µM, Hotspot confirmation, read-out: IC50
[8] = Reaction Biology, Inc, Table 1, read-out: ROCK2 IC50
[9] = initial screening, DOH (50 µM), Data 1 and Data 2
[10] = initial screening, DOH (50 µM), Data 1 and Data 2, read-out: % Enzyme Activity (relative to DMSO controls)
[11] = initial screening, DOH 50 µM, read-out: Substrate bound % Control

T5 sequence (O75116 whole entry): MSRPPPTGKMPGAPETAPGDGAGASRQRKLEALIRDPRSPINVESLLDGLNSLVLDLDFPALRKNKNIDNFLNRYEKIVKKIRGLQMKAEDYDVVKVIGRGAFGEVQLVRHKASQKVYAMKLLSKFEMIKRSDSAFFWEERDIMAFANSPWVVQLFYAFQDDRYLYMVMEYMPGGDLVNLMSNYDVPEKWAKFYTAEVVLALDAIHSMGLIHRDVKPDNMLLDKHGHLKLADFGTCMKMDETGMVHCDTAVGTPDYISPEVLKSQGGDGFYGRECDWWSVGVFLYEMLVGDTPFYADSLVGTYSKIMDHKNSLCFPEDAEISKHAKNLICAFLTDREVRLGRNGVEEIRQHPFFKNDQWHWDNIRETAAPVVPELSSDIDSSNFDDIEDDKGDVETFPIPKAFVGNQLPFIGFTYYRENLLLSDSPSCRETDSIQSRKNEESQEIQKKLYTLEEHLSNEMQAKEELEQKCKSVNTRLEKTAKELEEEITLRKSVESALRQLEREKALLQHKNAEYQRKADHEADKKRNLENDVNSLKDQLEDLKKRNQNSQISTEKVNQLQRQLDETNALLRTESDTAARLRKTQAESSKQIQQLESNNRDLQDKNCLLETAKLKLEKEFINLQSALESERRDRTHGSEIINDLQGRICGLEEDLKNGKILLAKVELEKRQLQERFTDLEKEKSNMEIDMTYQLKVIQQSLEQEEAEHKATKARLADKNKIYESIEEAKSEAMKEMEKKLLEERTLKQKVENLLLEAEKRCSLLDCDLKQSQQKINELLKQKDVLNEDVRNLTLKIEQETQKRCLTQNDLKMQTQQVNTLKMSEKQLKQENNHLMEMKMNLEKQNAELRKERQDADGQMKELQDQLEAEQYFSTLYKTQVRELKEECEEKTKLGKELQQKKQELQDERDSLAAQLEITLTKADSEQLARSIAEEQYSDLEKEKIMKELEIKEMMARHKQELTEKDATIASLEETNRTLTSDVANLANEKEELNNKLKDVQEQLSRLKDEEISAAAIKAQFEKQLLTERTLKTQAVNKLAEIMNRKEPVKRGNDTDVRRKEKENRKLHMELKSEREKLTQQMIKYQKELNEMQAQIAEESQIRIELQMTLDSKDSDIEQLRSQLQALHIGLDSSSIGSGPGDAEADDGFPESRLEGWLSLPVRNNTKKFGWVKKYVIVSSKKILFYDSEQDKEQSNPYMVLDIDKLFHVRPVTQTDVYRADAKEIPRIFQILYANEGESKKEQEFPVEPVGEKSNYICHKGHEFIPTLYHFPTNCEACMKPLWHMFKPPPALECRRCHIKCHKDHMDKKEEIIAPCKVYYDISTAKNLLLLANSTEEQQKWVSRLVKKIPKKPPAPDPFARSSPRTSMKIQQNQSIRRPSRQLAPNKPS
T6 sequence (Q9HBH9 whole entry): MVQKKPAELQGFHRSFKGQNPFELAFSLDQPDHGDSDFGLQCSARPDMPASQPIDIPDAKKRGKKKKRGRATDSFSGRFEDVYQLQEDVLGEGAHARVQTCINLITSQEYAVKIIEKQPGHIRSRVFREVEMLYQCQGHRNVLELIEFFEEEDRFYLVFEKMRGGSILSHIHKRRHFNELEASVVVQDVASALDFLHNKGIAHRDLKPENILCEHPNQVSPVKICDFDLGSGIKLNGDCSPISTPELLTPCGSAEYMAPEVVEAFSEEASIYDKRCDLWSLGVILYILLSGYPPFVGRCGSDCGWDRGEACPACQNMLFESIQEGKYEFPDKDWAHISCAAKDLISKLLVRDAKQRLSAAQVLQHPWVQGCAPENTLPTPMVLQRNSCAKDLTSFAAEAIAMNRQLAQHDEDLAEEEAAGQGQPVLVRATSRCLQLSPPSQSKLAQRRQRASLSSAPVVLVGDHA
T3 sequence (Q08345 19-913): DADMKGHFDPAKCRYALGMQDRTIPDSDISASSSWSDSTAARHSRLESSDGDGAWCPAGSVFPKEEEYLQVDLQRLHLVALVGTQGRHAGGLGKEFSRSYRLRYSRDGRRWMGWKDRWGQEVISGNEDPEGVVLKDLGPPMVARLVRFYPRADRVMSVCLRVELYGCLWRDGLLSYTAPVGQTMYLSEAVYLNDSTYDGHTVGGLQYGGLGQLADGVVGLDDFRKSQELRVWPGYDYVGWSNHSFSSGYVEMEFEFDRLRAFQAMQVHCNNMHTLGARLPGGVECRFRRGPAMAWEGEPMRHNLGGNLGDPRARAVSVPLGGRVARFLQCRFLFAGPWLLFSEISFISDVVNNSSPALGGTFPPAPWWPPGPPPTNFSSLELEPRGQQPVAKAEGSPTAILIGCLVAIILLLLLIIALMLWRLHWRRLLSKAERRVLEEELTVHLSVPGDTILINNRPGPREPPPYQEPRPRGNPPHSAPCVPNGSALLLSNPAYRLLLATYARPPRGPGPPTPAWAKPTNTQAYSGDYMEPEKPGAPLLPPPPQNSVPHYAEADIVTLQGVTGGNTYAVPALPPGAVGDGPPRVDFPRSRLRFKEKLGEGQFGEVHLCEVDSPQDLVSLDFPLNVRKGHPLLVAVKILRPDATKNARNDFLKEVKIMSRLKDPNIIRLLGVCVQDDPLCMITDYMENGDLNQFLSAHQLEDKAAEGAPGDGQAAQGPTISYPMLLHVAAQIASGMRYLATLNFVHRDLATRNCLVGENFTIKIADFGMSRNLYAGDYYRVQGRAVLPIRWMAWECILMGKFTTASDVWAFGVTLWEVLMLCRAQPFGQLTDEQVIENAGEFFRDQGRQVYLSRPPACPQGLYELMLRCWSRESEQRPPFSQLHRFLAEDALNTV
T2 sequence (Q8N5S9 whole entry): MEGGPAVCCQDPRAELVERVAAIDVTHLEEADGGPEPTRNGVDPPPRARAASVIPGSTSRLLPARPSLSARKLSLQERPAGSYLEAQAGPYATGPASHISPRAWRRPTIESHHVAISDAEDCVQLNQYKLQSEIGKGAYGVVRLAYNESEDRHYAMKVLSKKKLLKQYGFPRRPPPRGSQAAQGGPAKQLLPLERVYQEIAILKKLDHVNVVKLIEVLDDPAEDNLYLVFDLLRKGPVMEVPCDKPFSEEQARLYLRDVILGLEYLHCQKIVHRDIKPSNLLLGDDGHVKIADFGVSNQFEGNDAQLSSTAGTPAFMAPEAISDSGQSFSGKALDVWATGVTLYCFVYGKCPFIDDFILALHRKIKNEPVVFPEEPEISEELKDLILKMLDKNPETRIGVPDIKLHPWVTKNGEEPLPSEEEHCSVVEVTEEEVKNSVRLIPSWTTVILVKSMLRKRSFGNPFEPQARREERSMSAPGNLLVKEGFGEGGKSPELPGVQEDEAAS
Sequence of ROCK1 (Q13464 whole entry): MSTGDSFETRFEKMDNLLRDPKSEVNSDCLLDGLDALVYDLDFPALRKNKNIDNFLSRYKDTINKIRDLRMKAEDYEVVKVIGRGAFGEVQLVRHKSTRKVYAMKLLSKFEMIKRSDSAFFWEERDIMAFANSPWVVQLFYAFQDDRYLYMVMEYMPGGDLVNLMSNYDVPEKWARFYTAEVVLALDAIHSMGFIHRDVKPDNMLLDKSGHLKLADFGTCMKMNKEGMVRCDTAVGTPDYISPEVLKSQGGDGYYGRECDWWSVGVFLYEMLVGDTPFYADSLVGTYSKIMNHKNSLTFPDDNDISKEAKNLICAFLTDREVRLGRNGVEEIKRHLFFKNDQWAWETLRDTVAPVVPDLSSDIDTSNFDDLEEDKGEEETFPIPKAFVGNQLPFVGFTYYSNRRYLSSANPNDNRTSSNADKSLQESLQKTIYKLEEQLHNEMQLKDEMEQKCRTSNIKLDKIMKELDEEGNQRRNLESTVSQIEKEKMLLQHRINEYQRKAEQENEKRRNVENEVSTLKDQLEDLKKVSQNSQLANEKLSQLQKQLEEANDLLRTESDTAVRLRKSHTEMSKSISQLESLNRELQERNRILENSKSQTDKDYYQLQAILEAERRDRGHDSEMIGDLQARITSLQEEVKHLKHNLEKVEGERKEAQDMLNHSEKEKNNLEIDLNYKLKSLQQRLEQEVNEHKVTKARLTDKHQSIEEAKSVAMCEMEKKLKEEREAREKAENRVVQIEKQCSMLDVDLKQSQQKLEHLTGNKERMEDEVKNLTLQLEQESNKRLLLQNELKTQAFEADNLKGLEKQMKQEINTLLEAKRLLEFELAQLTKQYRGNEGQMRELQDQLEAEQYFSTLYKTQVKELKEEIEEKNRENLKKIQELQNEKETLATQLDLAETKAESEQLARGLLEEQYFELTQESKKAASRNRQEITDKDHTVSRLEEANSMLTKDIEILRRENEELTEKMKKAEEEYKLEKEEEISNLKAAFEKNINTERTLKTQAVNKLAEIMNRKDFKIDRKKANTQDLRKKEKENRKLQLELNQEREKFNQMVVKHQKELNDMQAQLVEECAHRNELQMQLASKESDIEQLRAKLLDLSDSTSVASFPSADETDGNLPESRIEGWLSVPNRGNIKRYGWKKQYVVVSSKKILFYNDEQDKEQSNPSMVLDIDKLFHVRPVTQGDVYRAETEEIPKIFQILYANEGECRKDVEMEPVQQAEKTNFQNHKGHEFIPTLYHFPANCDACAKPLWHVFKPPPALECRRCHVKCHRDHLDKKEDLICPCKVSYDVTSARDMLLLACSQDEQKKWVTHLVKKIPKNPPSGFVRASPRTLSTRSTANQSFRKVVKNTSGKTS

SMILES: C/C=C(/C)C(=O)O[C@H]1Cc2cc3ccc(=O)oc3cc2OC1(C)C [DA, decursinol angelate]
- Cmax [1]: 7.72 ng/mL
- t1/2 [1]: 4.04 h
- tmax [1]: 0.31 h
- pIC50 (AR; ERα; antagonist/degrader): ~5.30
- mode of action on AR and ERα (AR; ERα): antagonists/degraders
- pIC50 (human MAO-A): 4.89
- pIC50 (BRSK2): < 4.00
- pIC50 (CAMKK1): < 4.00
- pIC50 (DDR1): < 4.00
- pIC50 (PDK2/PDHK2): < 4.00
- pKd (ROCK2 [2]; [4]): 5.25
- pKd (ROCK2 [2]; [5]): 5.27 and 5.24
- inhibitory activity on MAO-B (MAO-B): lacked any inhibitory activity
- pKd (MKNK2): < 4.30
- pKd (DRAK2 (STK17B)): < 4.30
- pIC50 (ROCK1; [6]): 4.74
- pIC50 (ROCK1; [7]): 4.80 and 4.70
- pIC50 (ROCK2 [3]; [8]): 4.64
- pIC50 (ROCK2 [3]; [7]): 4.66

SMILES: CC1(C)Oc2cc3oc(=O)ccc3cc2C[C@@H]1O [DOH, decursinol]
- Cmax [1]: 0.92 ng/mL
- t1/2 [1]: 2.62 h
- tmax [1]: 0.64 h
- pEC50 (AR; ERα; read-out: AR, ERα agonist EC50): ~5.00
- mode of action on AR and ERα (AR; ERα): weak partial agonist activity
- MAO-A initial screen (human MAO-A; at 10 μM): failed the initial screen
- pIC50 (human MAO-A): < 5.00
- inhibition at 50 µM (BRSK2; initial screening, DOH 50 µM): 46.8%
- % Enzyme Activity (relative to DMSO controls) (BRSK2; [9]): 52.6%
- remaining activity at 50 µM (BRSK2; [10]): 53.8%
- pIC50 (BRSK2): < 4.00
- inhibition at 50 µM (CAMKK1; initial screening, DOH 50 µM): 40.3%
- % Enzyme Activity (relative to DMSO controls) (CAMKK1; [9]): 59.3%
- remaining activity at 50 µM (CAMKK1; [10]): 60.1%
- pIC50 (CAMKK1): < 4.00
- inhibition at 50 µM (DDR1; initial screening, DOH 50 µM): 49%
- % Enzyme Activity (relative to DMSO controls) (DDR1; [9]): 49.7%
- remaining activity at 50 µM (DDR1; [10]): 52.3%
- pIC50 (DDR1): < 4.00
- inhibition at 50 µM (PDK2/PDHK2; initial screening, DOH 50 µM): 39.7%
- % Enzyme Activity (relative to DMSO controls) (PDK2/PDHK2; [9]): 59.8%
- remaining activity at 50 µM (PDK2/PDHK2; [10]): 60.8%
- pIC50 (PDK2/PDHK2): < 4.00
- pKd (ROCK2 [2]; [4]): 4.84
- remaining binding at 50 µM (ROCK2 [2]; [11]): 21%
- pKd (ROCK2 [2]; [5]): 4.85 and 4.82
- inhibitory activity on MAO-B (MAO-B): lacked any inhibitory activity
- remaining binding at 50 µM (MKNK2; [11]): 25%
- pKd (MKNK2): 4.70 and 4.60
- remaining binding at 50 µM (DRAK2 (STK17B); [11]): 24%
- pKd (DRAK2 (STK17B)): 4.68 and 4.66
- pIC50 (ROCK1; [6]): 4.09
- DOH % Inhibition (ROCK1; initial screening, DOH 50 µM): 26.6%
- inhibition at 50 µM (ROCK1; initial screening, DOH 50 µM): 27%
- % Enzyme Activity (relative to DMSO controls) (ROCK1; [9]): 72.1%
- remaining activity at 50 µM (ROCK1; [10]): 74.7%
- pIC50 (ROCK2 [3]; [8]): 4.07
- DOH % Inhibition (ROCK2 [3]; initial screening, DOH 50 µM): 43.2%
- inhibition at 50 µM (ROCK2 [3]; initial screening, DOH 50 µM): 43%
- % Enzyme Activity (relative to DMSO controls) (ROCK2 [3]; [9]): 56.1%
- remaining activity at 50 µM (ROCK2 [3]; [10]): 57.5%
